Laboratory results taken from patent publication US5723666A, “Oxime substituted tetrahydronaphthalene derivatives having retinoid and/or retinoid antagonist-like biological activity” (Allergan, priority 1996, dated 1998).

Target: T1, RARα (Homo sapiens, UniProt P10276)
T1 sequence (P10276 1-462): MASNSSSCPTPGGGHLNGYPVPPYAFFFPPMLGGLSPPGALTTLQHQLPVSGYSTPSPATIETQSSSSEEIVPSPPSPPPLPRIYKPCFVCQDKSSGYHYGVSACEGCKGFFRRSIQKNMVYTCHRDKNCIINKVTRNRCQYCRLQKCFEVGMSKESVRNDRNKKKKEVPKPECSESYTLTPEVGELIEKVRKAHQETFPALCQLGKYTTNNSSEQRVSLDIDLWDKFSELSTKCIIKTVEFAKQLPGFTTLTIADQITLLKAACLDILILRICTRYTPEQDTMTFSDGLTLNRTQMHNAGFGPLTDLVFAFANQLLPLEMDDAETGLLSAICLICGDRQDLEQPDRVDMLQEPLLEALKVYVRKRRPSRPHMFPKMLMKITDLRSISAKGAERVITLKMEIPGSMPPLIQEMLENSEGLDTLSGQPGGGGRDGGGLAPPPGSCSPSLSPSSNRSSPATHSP
Assay: Ligand Binding Assay, RARα
From the text: Other assays described below, measure the ability of the compounds of the present invention to bind to, and/or activate various retinoid receptor subtypes. When in these assays a compound binds to a given receptor subtype and activates the transcription of a reporter gene through that subtype, then the compound is considered an agonist of that receptor subtype. […] In the below described assays the ability of the compounds to bind to RARα, RARβ, RARγ, RXRα, RXRβ and RXRγ receptors, and the ability or inability of the compounds to activate transcription of a reporter gene through these receptor subtypes can be tested.
A holoreceptor transactivation assay and a ligand binding assay which measure the antagonist/agonist like activity of the compounds of the invention, or their ability to bind to the several retinoid receptor subtypes, respectively, are described in published PCT Application No. WO WO93/11755 (particularly on pages 30-33 and 37-41) published on Jun. 24, 1993, the specification of which is also incorporated herein by reference. A description of the holoreceptor transactivation assay is also provided below.
CV1 cells (5,000 cells/well) were transfected with an RAR, reporter plasmid MTV-TREp-LUC (50 ng) along with one of the RAR expression vectors (10 ng) in an automated 96-well format by the calcium phosphate procedure of Heyman et al. Cell 68, 397-406, (1992). […]

Kd: 1 µM
SMILES: CO/N=C1\CCC(C)(C)c2ccc(/N=N/c3ccc(C(=O)O)cc3)cc21 [Compound D4]
